Legend:
[1] = The drug is tested on Bifidobacterium ruminantium strain: fecal isolate for biotransformation. The drug concentrations were measured before and after a 12-h incubation by liquid-chromatography-coupled mass spectrometry (LC–MS); conditions: 2 µM
[2] = The drug is tested on Collinsella aerofaciens strain: ATCC25986 for biotransformation. The drug concentrations were measured before and after a 12-h incubation by liquid-chromatography-coupled mass spectrometry (LC–MS); conditions: 2 µM
[3] = The drug is tested on Collinsella intestinalis strain: DSM13280 for biotransformation. The drug concentrations were measured before and after a 12-h incubation by liquid-chromatography-coupled mass spectrometry (LC–MS); conditions: 2 µM
[4] = The drug is tested on Bacteroides cellulosilyticus strain: DSM14838 for biotransformation. The drug concentrations were measured before and after a 12-h incubation by liquid-chromatography-coupled mass spectrometry (LC–MS); conditions: 2 µM
[5] = The drug is tested on Bacteroides coprophilus strain: DSM18228 for biotransformation. The drug concentrations were measured before and after a 12-h incubation by liquid-chromatography-coupled mass spectrometry (LC–MS); conditions: 2 µM
[6] = The drug is tested on Bacteroides fragilis strain: ATCC43859 for biotransformation. The drug concentrations were measured before and after a 12-h incubation by liquid-chromatography-coupled mass spectrometry (LC–MS); conditions: 2 µM
[7] = The drug is tested on Bacteroides pectinophilus strain: ATCC43243 for biotransformation. The drug concentrations were measured before and after a 12-h incubation by liquid-chromatography-coupled mass spectrometry (LC–MS); conditions: 2 µM
[8] = The drug is tested on Bacteroides uniformis strain: ATCC8492 for biotransformation. The drug concentrations were measured before and after a 12-h incubation by liquid-chromatography-coupled mass spectrometry (LC–MS); conditions: 2 µM
[9] = The drug is tested on Bacteroides vulgatus strain: ATCC8482 for biotransformation. The drug concentrations were measured before and after a 12-h incubation by liquid-chromatography-coupled mass spectrometry (LC–MS); conditions: phocaeicola vulgatus, 2 µM
[10] = The drug is tested on Bacteroides sp. WH2 strain: WH2 for biotransformation. The drug concentrations were measured before and after a 12-h incubation by liquid-chromatography-coupled mass spectrometry (LC–MS); conditions: bacteroides sp. wh2, 12 h, 2 µM
[11] = The drug is tested on Bacteroides xylanisolvens strain: DSM18836 for biotransformation. The drug concentrations were measured before and after a 12-h incubation by liquid-chromatography-coupled mass spectrometry (LC–MS); conditions: 2 µM
[12] = The drug is tested on Anaerococcus hydrogenalis strain: DSM7454 for biotransformation. The drug concentrations were measured before and after a 12-h incubation by liquid-chromatography-coupled mass spectrometry (LC–MS); conditions: 2 µM
[13] = The drug is tested on Anaerotruncus colihominis strain: DSM17241 for biotransformation. The drug concentrations were measured before and after a 12-h incubation by liquid-chromatography-coupled mass spectrometry (LC–MS); conditions: 2 µM
[14] = The drug is tested on Blautia luti strain: DSM14534 for biotransformation. The drug concentrations were measured before and after a 12-h incubation by liquid-chromatography-coupled mass spectrometry (LC–MS); type: ADME; design: dose 2 uM, timepoint 0 vs 12 hours; conditions: 2 µM
[15] = The drug is tested on Clostridium ramosum strain: DSM1402 for biotransformation. The drug concentrations were measured before and after a 12-h incubation by liquid-chromatography-coupled mass spectrometry (LC–MS); conditions: thomasclavelia ramosa, 2 µM
[16] = The drug is tested on Clostridium scindens strain: ATCC35704 for biotransformation. The drug concentrations were measured before and after a 12-h incubation by liquid-chromatography-coupled mass spectrometry (LC–MS); conditions: 2 µM
[17] = The drug is tested on Clostridium sporogenes strain: ATCC15579 for biotransformation. The drug concentrations were measured before and after a 12-h incubation by liquid-chromatography-coupled mass spectrometry (LC–MS); conditions: 2 µM
[18] = The drug is tested on Clostridium symbiosum strain: ATCC14940 for biotransformation. The drug concentrations were measured before and after a 12-h incubation by liquid-chromatography-coupled mass spectrometry (LC–MS); conditions: 2 µM
[19] = The drug is tested on Coprococcus comes strain: ATCC27758 for biotransformation. The drug concentrations were measured before and after a 12-h incubation by liquid-chromatography-coupled mass spectrometry (LC–MS); type: ADME; design: dose 2 uM, timepoint 0 vs 12 hours; conditions: 2 µM
[20] = The drug is tested on Dorea formicigenerans strain: ATCC27755 for biotransformation. The drug concentrations were measured before and after a 12-h incubation by liquid-chromatography-coupled mass spectrometry (LC–MS); conditions: 2 µM
[21] = The drug is tested on Enterococcus faecalis strain: V583 for biotransformation. The drug concentrations were measured before and after a 12-h incubation by liquid-chromatography-coupled mass spectrometry (LC–MS); conditions: 2 µM
[22] = The drug is tested on Eubacterium hallii strain: DSM3353 for biotransformation. The drug concentrations were measured before and after a 12-h incubation by liquid-chromatography-coupled mass spectrometry (LC–MS); conditions: anaerobutyricum hallii, 2 µM
[23] = The drug is tested on Eubacterium rectale strain: ATCC33656 for biotransformation. The drug concentrations were measured before and after a 12-h incubation by liquid-chromatography-coupled mass spectrometry (LC–MS); conditions: agathobacter rectalis, 2 µM
[24] = The drug is tested on Eubacterium ventriosum strain: ATCC27560 for biotransformation. The drug concentrations were measured before and after a 12-h incubation by liquid-chromatography-coupled mass spectrometry (LC–MS); type: ADME; design: dose 2 uM, timepoint 0 vs 12 hours; conditions: 2 µM
[25] = The drug is tested on Ruminococcus gnavus strain: ATCC29149 for biotransformation. The drug concentrations were measured before and after a 12-h incubation by liquid-chromatography-coupled mass spectrometry (LC–MS); conditions: mediterraneibacter gnavus, 2 µM
[26] = The drug is tested on Ruminococcus lactaris strain: ATCC29176 for biotransformation. The drug concentrations were measured before and after a 12-h incubation by liquid-chromatography-coupled mass spectrometry (LC–MS); conditions: 2 µM
[27] = The drug is tested on Ruminococcus torques strain: ATCC27756 for biotransformation. The drug concentrations were measured before and after a 12-h incubation by liquid-chromatography-coupled mass spectrometry (LC–MS); type: ADME; design: dose 2 uM, timepoint 0 vs 12 hours; conditions: 2 µM
[28] = The drug is tested on Subdoligranulum variabile strain: DSM15176 for biotransformation. The drug concentrations were measured before and after a 12-h incubation by liquid-chromatography-coupled mass spectrometry (LC–MS); conditions: 2 µM
[29] = The drug is tested on Edwardsiella tarda strain: ATCC23685 for biotransformation. The drug concentrations were measured before and after a 12-h incubation by liquid-chromatography-coupled mass spectrometry (LC–MS); conditions: 2 µM
[30] = The drug is tested on Providencia stuartii strain: ATCC25827 for biotransformation. The drug concentrations were measured before and after a 12-h incubation by liquid-chromatography-coupled mass spectrometry (LC–MS); conditions: 2 µM
[31] = bifidobacterium adolescentis, 12 h, 2 µM
Description: The drug is tested on Bifidobacterium adolescentis strain: ATCC 15703 for biotransformation. The drug concentrations were measured before and after a 12-h incubation by liquid-chromatography-coupled mass spectrometry (LC–MS)

[32] = bacteroides eggerthii, 12 h, 2 µM
Description: The drug is tested on Bacteroides eggerthii strain: DSM20697 for biotransformation. The drug concentrations were measured before and after a 12-h incubation by liquid-chromatography-coupled mass spectrometry (LC–MS)

[33] = bacteroides fragilis, 12 h, 2 µM
Description: The drug is tested on Bacteroides fragilis strain: NCTC 9343 for biotransformation. The drug concentrations were measured before and after a 12-h incubation by liquid-chromatography-coupled mass spectrometry (LC–MS)

[34] = bacteroides intestinalis, 12 h, 2 µM
Description: The drug is tested on Bacteroides intestinalis strain: DSM17393 for biotransformation. The drug concentrations were measured before and after a 12-h incubation by liquid-chromatography-coupled mass spectrometry (LC–MS)

[35] = parabacteroides johnsonii, 12 h, 2 µM
Description: The drug is tested on Parabacteroides johnsonii strain: DSM18315 for biotransformation. The drug concentrations were measured before and after a 12-h incubation by liquid-chromatography-coupled mass spectrometry (LC–MS)

[36] = segatella copri, 12 h, 2 µM
Description: The drug is tested on Prevotella copri strain: DSM18205 for biotransformation. The drug concentrations were measured before and after a 12-h incubation by liquid-chromatography-coupled mass spectrometry (LC–MS)

[37] = anaerostipes sp., 12 h, 2 µM
Description: The drug is tested on Anaerostipes sp. strain: fecal isolate for biotransformation. The drug concentrations were measured before and after a 12-h incubation by liquid-chromatography-coupled mass spectrometry (LC–MS)

[38] = victivallis vadensis, 12 h, 2 µM
Description: The drug is tested on Victivallis vadensis strain: ATCC BAA-548 for biotransformation. The drug concentrations were measured before and after a 12-h incubation by liquid-chromatography-coupled mass spectrometry (LC–MS)

[39] = akkermansia muciniphila, 12 h, 2 µM
Description: The drug is tested on Akkermansia muciniphila strain: ATCC BAA-835 for biotransformation. The drug concentrations were measured before and after a 12-h incubation by liquid-chromatography-coupled mass spectrometry (LC–MS)

Bacterial Biotransformation [1]: Compound NOT metabolized
Bacterial Biotransformation [2]: Compound NOT metabolized
Bacterial Biotransformation [3]: Compound NOT metabolized
Bacterial Biotransformation [4]: Compound metabolized
Bacterial Biotransformation [5]: Compound NOT metabolized
Bacterial Biotransformation [6]: Compound metabolized
Bacterial Biotransformation [7]: Compound NOT metabolized
Bacterial Biotransformation [8]: Compound metabolized
Bacterial Biotransformation [9]: Compound metabolized
Bacterial Biotransformation [10]: Compound NOT metabolized
Bacterial Biotransformation [11]: Compound metabolized
Bacterial Biotransformation [12]: Compound NOT metabolized
Bacterial Biotransformation [13]: Compound NOT metabolized
Bacterial Biotransformation [14]: Compound NOT metabolized
Bacterial Biotransformation [15]: Compound NOT metabolized
Bacterial Biotransformation [16]: Compound NOT metabolized
Bacterial Biotransformation [17]: Compound NOT metabolized
Bacterial Biotransformation [18]: Compound NOT metabolized
Bacterial Biotransformation [19]: Compound NOT metabolized
Bacterial Biotransformation [20]: Compound NOT metabolized
Bacterial Biotransformation [21]: Compound NOT metabolized
Bacterial Biotransformation [22]: Compound NOT metabolized
Bacterial Biotransformation [23]: Compound NOT metabolized
Bacterial Biotransformation [24]: Compound NOT metabolized
Bacterial Biotransformation [25]: Compound NOT metabolized
Bacterial Biotransformation [26]: Compound NOT metabolized
Bacterial Biotransformation [27]: Compound NOT metabolized
Bacterial Biotransformation [28]: Compound NOT metabolized
Bacterial Biotransformation [29]: Compound NOT metabolized
Bacterial Biotransformation [30]: Compound NOT metabolized
Bacterial Biotransformation [31]: Compound NOT metabolized
Bacterial Biotransformation [32]: Compound NOT metabolized
Bacterial Biotransformation [33]: Compound NOT metabolized
Bacterial Biotransformation [34]: Compound NOT metabolized
Bacterial Biotransformation [35]: Compound NOT metabolized
Bacterial Biotransformation [36]: Compound NOT metabolized
Bacterial Biotransformation [37]: Compound NOT metabolized
Bacterial Biotransformation [38]: Compound NOT metabolized
Bacterial Biotransformation [39]: Compound NOT metabolized
Compound: CCOC(=O)[C@H](CCc1ccccc1)N[C@@H](C)C(=O)N1[C@H](C(=O)O)C[C@@H]2CCC[C@@H]21
